We go through one compound from ChEMBL document CHEMBL3856182, “How much successful are the medicinal chemists in modulation of SIRT1: A critical review” (Eur J Med Chem, 2016).

pIC50, pKi: −log10 of the molar value.

Assay [1] has as its target T1, NAD-dependent protein deacetylase sirtuin-2 (Homo sapiens, UniProt Q8IXJ6).
T1 sequence (Q8IXJ6 whole entry): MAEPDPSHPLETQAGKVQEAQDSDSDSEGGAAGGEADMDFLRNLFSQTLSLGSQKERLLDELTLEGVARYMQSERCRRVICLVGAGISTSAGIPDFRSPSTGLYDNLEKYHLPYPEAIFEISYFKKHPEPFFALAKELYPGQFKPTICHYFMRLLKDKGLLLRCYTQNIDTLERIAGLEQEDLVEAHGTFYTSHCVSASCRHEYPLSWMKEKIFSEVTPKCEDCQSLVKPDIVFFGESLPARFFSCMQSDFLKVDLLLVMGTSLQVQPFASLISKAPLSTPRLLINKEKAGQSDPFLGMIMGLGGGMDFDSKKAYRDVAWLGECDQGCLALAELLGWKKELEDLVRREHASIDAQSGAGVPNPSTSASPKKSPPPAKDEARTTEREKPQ
In words: Competitive inhibition of human SIRT2 assessed as deacetylation activity using fluorescent peptide substrate in presence of NAD+ by Lineweaver-Burk plot analysis.

In assay [2] the target is T1, NAD-dependent protein deacetylase sirtuin-2. Kind of assay: Inhibition of recombinant human SIRT2 assessed as deacetylation activity using fluorescent substrate in presence of NAD+ by fluorescence analysis.
The target in assay [3] is T2, NAD-dependent protein deacetylase sirtuin-1 (Homo sapiens, UniProt Q96EB6).
T2 sequence (Q96EB6 whole entry): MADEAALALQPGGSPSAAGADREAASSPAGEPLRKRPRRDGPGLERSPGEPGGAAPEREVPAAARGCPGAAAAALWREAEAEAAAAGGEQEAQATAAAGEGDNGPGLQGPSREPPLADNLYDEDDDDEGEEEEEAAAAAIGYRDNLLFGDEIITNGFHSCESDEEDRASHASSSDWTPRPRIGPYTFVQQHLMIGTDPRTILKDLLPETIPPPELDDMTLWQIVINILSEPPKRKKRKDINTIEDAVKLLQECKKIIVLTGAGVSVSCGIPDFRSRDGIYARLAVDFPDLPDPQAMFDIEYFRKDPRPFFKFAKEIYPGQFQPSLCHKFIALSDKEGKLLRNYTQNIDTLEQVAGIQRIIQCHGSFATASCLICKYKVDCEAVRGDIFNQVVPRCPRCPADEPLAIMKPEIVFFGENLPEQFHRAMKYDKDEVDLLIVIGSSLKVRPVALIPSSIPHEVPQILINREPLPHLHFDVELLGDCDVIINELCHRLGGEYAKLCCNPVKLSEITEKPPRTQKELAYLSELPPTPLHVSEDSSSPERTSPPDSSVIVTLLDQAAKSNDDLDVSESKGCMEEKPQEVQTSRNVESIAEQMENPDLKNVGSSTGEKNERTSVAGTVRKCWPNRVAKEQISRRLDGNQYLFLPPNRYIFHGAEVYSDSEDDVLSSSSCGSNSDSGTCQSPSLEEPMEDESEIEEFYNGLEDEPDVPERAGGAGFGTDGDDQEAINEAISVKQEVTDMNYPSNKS
In words: Inhibition of recombinant human SIRT1 assessed as deacetylation activity using fluorescent substrate in presence of NAD+ by fluorescence analysis.

For assay [4], the target named is T1, NAD-dependent protein deacetylase sirtuin-2. Kind of assay: Noncompetitive inhibition of human SIRT2 assessed as deacetylation activity using fluorescent substrate in presence of NAD+ by Lineweaver-Burk plot analysis.

For orientation: pKi means the Ki on a negative log10 scale, so that one unit is a factor of ten. The pIC50 is −log10 of the IC50, conventionally taken in molar units. Turning to `O=C(/C=C/c1ccc(O)c(O)c1)NC(Cc1c[nH]c2ccccc12)C(=O)O` (centres undefined), the pKi is 5.28 in assay [1] and 5.01 in assay [4]. The results for the negative logarithm of the IC50 (pIC50) in assay [2] and in assay [3] were 5.06 and 4.47, respectively.
